Assay results reported in PMC9247985, “Accessing Diverse Pyridine-Based Macrocyclic Peptides by a Two-Site Recognition Pathway” (Journal of the American Chemical Society, 2022).
Where a SMILES comes first, the peptide text is derived from it. Where no end group is shown, it is not given here. The star is where a group is joined. 5FAM = O=C1OC2(c3ccc(O)cc3Oc3cc(O)ccc32)c2ccc(C(=O)*)cc21

Assays:
MBP-MroD = MBP-MroD (Micromonospora rosaria, UniProt A0A136PPB2); assay: biochemical
Text: Experiments were done in triplicates. Stock
(1 picture or pasted object on this page, not shown here)

MroB = details: read-out: IC50 MroB; SEM
Experimental: Competition fluorescence polarization. The initial sample contained 80 nM enzyme, 5 nM labeled ∆12M r oA1
peptide, and competitor peptide (concentration is from 20 µM to 100 µM, depending on the experiment). In a bl a ck
subsequent wells containing 80 nM MBP-MroB and 5nM labeled ∆12MroA1. The plate was covered from light and
(§1) incubated at room temperat ur e for 10 min, and then fluorescence polarization was measured (Biotek Synergy H4
hybrid reader) using the following filter (Ex: Em – 485 nm / 20 nm: 51 8 nm / 20 nm ). The obtained data was converted
(§2) to anisotropy value and plotted against peptide concentration, and fitted to dose-response function:
Where: y = anisotropy value, A1 = minimum anisotropy, A2 = maximum anisotropy, p = Hill’s coefficient, x =
competitor concentration. The obtained IC50 was used to calculate inhibitor constant K I using the following equation: 12 𝐾𝐾𝐾𝐾 = 𝐼𝐼𝐼𝐼50)− 𝐾𝐾𝐾𝐾 ( 𝑦𝑦𝑦𝑦 + 2)
(§3) Where: Lt is labeled peptide concentration, y = initial bound/free r at i o of the labeled peptide before adding competitor,
and Kd is the binding constant.
(§4) In cases where competitor concentration wa s not high enough to achieve a plateau, the competition curve was fitted
with minimum anisotropy fixed to be the same value as the anisotropy value of t he free probe solution. This calculation […]
Competitive fluorescence polarization […]

MroD = MroD (Micromonospora rosaria, UniProt A0A136PPB2); details: read-out: IC50 MroD; SEM
Experimental: Competition fluorescence polarization.
peptide, and competitor peptide (concentration is from 20 µM to 100 µM, depending on the experiment).
subsequent wells containing 80 nM MBP-MroB and 5nM labeled ∆12MroA1.
as §1
hybrid reader) using the following filter (Ex: Em – 485 nm / 20 nm: 51 8 nm / 20 nm ).
as §2
competitor concentration.
as §3
and Kd is the binding constant.
as §4
with minimum anisotropy fixed to be the same value as the anisotropy value of t he free probe solution.
assumed that the labeled peptide was completely displaced from the enzyme binding pocket at a very high
concentration of the competitor.
The specific minimum anisotropy used in this experiment for both MroB and MroD wa s 65.
traces of MroA1 variants binding to MroB.
These peptides were titrated against MBP-MroD (80 nM) complexed with f luorescein-∆12MroA1 (5 nM).
standard deviation (n=3). Errors on Ki and IC50 values are the standard error of the mean generated through regr essi on
polarization traces of MroA1 variants binding to M BP -MroD.
∆12MroA1(5 nM ) . Error bars represent standard deviation (n=3). Errors on Ki a nd IC50 values are the standard error
of the mean generated through regression analysis.

MroB/C = MroB/C dehydration (Dha formation) of in vitro translated MroA2 variants, MALDI-TOF-MS; assay type: biochemical, Micromonospora rosaria; details: Table S6, MroA2 multi-site variants, 2 μM MBP-MroB, 2 μM MBP-MroC, 1 h room temperature
Experimental: in 2 mM NaOAc pH 5.2, and the concentration was assayed using 260 nm absorbance. This tRNA Glu (CUC) was t he n used in the MroBC-catalyzed dehydration assay.
In vitro translation and enzymati c as s ays (dehydration and cyclization). In a 0.65 mL protein low-binding Eppendorf tube placed on ice, 0.75 μL of purified mroA variant template DNA was mixed with 0.75 μL of Solution B and 1 μL of Solution A of PURExpress I n vi t ro Protein Synthesis Kit (E6800L) purchased from NEB (total volume of reaction is 2.5 μL ). The translation reactions were performed at 37°C for 1 hon an aluminum block.
For a full MroBCD substrate scope investigation, a total translation volume for each variant of 7.5 μL was performed.
1.5 μL of 90 mM i odoacet am i de (IAA) was added to quench d ithiothreitol (DTT) in the translation reaction mixture, a thiol -based nucleophile that can react with electrophilic dehydroalanines generated from MroBC-cat al yzed dehydration assays. […]
In the 6 μL part, 10.2 μL of the enzyme mix containing enzymes and cofactors was added along with 1.8 μ L 90 mM ATP (pH 7.5) ,which wasused to initiate the reaction . The enzyme mix was made by adding these components in the following order: HEPES pH 7.5, MgCl2, glutamate, T. bispora tRNAGl u(CUC), thermostable inorganic pyrophosphatase (TIPP), TEV (L56V/S135G/S219V) (w/w ratio with a total amount of MBP-tagged protein = 1: 10), MBP-MroB, MBP-MroC, and T. bispora GluRS. The enzyme mix was incubated 25 min at room temper at ure before adding to the translation product to facilitate in situ TEV -catalyzed cleavage of MBP from MBP -MroB and MBP - MroC. The enzymatic reaction proceeded for 1 h at room temperature. Overal l , the concentration of components in the 18 μL reaction mix is as follows : 50 mM HEPES pH 7.5, 5 mM MgCl2, gl utamate 1 mM, 3 μM T. bi s por a tRNAGlu, 1 μM T. bispora GluRS, 2 μM MBP-MroB, 2 μM MBP-MroC, […], 0.027 U/μL TIPP, and 5 mM IAA. In addition, the […] was incubated with the same buffer lacking enzymes and tRNA as a translation control.
After incubation, the enzyme reaction (18 μ L) was split into two equal parts. One part was treated with MBP-MroD such that the final concentration of MBP-MroD is 3 μM, and the other part was added the same volume but with buffer lacking MBP-MroD (50 mM HEPES, 300 mM NaCl, 2.5% glycerol, 0.5 mM TCEP).The reaction further proceeded for 1.5 h at room temperature. All reaction mixture was then desalted with solid- phase extraction using Ziptip with 0.6 μL C18 resin (EMD Milli por e ) and crystallized on an MTP384 steel target plate using either sa t ur at e d sina pi c ac i d or 50 mg/mL Super DHB [ dissolved in 60% acetonitrile and 0.1% trifluoroacetic acid (TFA )] as the matrix. T he crystallized spots were then analyzed using MALDI-TOF-MS (Bruker Ultraflex). The external standard for MALDI - TOF-MS analysis is ProteoMass Peptide and Protein MALDI -MS Calibration Kit ( Si g ma ) In this work, TEV was used in every variant tested. […]

Sequence of MroD (A0A136PPB2 entry or part of it): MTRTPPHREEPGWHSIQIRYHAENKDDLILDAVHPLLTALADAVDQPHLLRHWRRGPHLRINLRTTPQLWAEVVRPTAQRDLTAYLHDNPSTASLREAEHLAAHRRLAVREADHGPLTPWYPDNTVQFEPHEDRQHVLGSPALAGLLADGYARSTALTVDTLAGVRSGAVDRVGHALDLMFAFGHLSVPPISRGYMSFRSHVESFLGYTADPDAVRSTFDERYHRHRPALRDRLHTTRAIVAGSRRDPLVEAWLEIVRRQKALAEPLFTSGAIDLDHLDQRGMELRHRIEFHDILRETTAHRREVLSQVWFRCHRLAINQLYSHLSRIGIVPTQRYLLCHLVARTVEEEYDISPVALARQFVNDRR
Sequence of MBP-MroD (A0A136PPB2 1-366): as the sequence (A0A136PPB2 entry or part of it) above

Molecule | IC50 (MroD) [nM] | Dha formation (MroB/C) | other results
CC[C@H](C)[C@H](NC(=O)[C@@H](NC(=O)[C@H](Cc1c[nH]c2ccccc12)NC(=O)[C@H](CO)NC(=O)CNC(=O)[C@H](CC(C)C)NC(=O)[C@H](Cc1c[nH]c2ccccc12)NC(=O)CNC(=O)[C@H](CO)NC(=O)[C@H](C)NC(=O)CNC(=O)[C@@H](NC(=O)[C@H](CCC(=O)O)NC(=O)[C@@H](NC(=O)[C@H](CC(N)=O)NC(=O)CNC(=O)[C@H](CC(C)C)NC(=O)CNC(=O)CNC(=O)[C@@H](NC(=O)[C@H](CO)NC(=O)[C@H](CC(C)C)NC(=O)[C@H](C)NC(=O)[C@H](C)NC(=O)[C@H](CC(C)C)NC(=O)[C@H](CCC(=O)O)NC(=O)[C@H](CCC(=O)O)NC(=O)[C@H](CC(=O)O)NC(=O)[C@@H](NC(=O)[C@H](C)NC(=O)[C@H](CC(C)C)NC(=O)[C@H](CC(=O)O)NC(=O)[C@H](CC(C)C)NC(=O)[C@H](CC(=O)O)NC(=O)[C@@H](NC(=O)[C@@H](NC(=O)[C@H](CC(=O)O)NC(=O)[C@H](CC(C)C)NC(=O)[C@H](CC(=O)O)NC(=O)[C@H](CO)NC(=O)c1ccc2c(c1)C(=O)OC21c2ccc(O)cc2Oc2cc(O)ccc21)[C@@H](C)CC)C(C)C)C(C)C)C(C)C)[C@@H](C)O)C(C)C)C(C)C)C(=O)O [fluorescein-Δ12MroA1] (5FAM-SDLDIVDLDLAVDEELAALSVGGLGNTEVGASGWLGSWVI-OH) |  |  | Kd (MBP-MroD): ~12 nM
CC[C@H](C)[C@H](NC(=O)[C@H](CC(=O)O)NC(=O)[C@H](CC(C)C)NC(=O)[C@H](CC(=O)O)NC(=O)[C@@H](N)CO)C(=O)N[C@H](C(=O)N[C@@H](CC(=O)O)C(=O)N[C@@H](CC(C)C)C(=O)N[C@@H](CC(=O)O)C(=O)N[C@@H](CC(C)C)C(=O)N[C@@H](C)C(=O)N[C@H](C(=O)N[C@@H](CC(=O)O)C(=O)N[C@@H](CCC(=O)O)C(=O)N[C@@H](CCC(=O)O)C(=O)N[C@@H](CC(C)C)C(=O)N[C@@H](C)C(=O)N[C@@H](C)C(=O)N[C@@H](CC(C)C)C(=O)N[C@@H](CO)C(=O)N[C@H](C(=O)NCC(=O)NCC(=O)N[C@@H](CC(C)C)C(=O)NCC(=O)N[C@@H](CC(N)=O)C(=O)N[C@H](C(=O)N[C@@H](CCC(=O)O)C(=O)N[C@H](C(=O)NCC(=O)N[C@@H](C)C(=O)N[C@@H](CO)C(=O)NCC(=O)N[C@@H](Cc1c[nH]c2ccccc12)C(=O)N[C@@H](CC(C)C)C(=O)NCC(=O)N[C@@H](CO)C(=O)N[C@@H](Cc1c[nH]c2ccccc12)C(=O)N[C@H](C(=O)N[C@H](C(=O)OC)[C@@H](C)CC)C(C)C)C(C)C)[C@@H](C)O)C(C)C)C(C)C)C(C)C [Δ12MroA1-COOMe] (H-SDLDIVDLDLAVDEELAALSVGGLGNTEVGASGWLGSWVI-OMe) | 400 ± 60 |  | IC50 (MroB): 4200 ± 1700 nM
SDLDIVDLDLAVDEELAALSVGGLGNTEVGA [Δ12MroA1 leader] | 16000 ± 4400 |  | 
SDLDIVDLDLAVDEELAALSVGGLGNTEVGASGWLGSGVI [Δ12MroA1-W7G] | 2400 ± 300 |  | 
SDLDIVDLDLAVDEELAALSVGGLGNTEVGASGWLGSWGI [Δ12MroA1-V8G] | 1700 ± 400 |  | 
SDLDIVDLDLAVDEELAALSVGGLGNTEVGASGWLGSWVG [Δ12MroA1-I9G] | 910 ± 90 |  | 
SDLDIVDLDLAVDEELAALSVGGLGNTEVGASGWLGSWVI [Δ12MroA1] | 90 ± 20 |  | 
SGDAMRWRSWLI [53-A8R, Arg variant of multi-site variant 53] |  | 2 Dha | 
SGGYRPRSWLI [38-H7R, Arg variant of multi-site variant 38] |  | 2 Dha | 
SGHYKPQRSWLI [55-A8R, Arg variant of multi-site variant 55] |  | 2 Dha | 
SGIAKEVRSWLI [47-Q8R, Arg variant of multi-site variant 47] |  | 2 Dha | 
SGKALERSWLI [29-F7R, Arg variant of multi-site variant 29] |  | M ix of 1, 2 Dha | 
SGLQHGKRSWLI [52-Y8R, Arg variant of multi-site variant 52] |  | 2 Dha | 
SGQGRNRSWLI [24-V7R, Arg variant of multi-site variant 24] |  | 2 Dha | 
SGREFARSWLI [35-N7R, Arg variant of multi-site variant 35] |  | 2 Dha | 
SGRYAGRSWLI [39-W7R, Arg variant of multi-site variant 39] |  | 2 Dha | 
SGYDRQRSWLI [56-Y7R, Arg variant of multi-site variant 56] |  | 2 Dha | 
SGYHFHNRSWLI [54-V8R, Arg variant of multi-site variant 54] |  | 2 Dha | 
